{"source": "patent US9107852B2", "about": "“Uses of agonists of delta opioid receptor in cosmetic and dermocosmetic field” (Induchem Holding AG, priority 2012, dated 2015)", "key": {"human skin explants": {"tested_on": "human skin explants", "assay": "Pro-pigmentation on human skin explants", "format": "cell-based", "details": "within 6 days, 0.3 and 3 PPM", "experimental": "This study aims to explore the pro pigmenting activity of an ingredient (peptide YPLDLF, SEQ ID No 1) on human skin explants maintained in survival.\nThe activity of the product was evaluated by: • histological expertise of general morphology of the skin after Masson trichrome staining, • a visualization of melanin by a silver impregnation. • Immunostaining of Melan-A\nSkin explants with a diameter of 10 mm were prepared from plastic surgery skin sample from a person. The explants were placed in survival in a specific growth medium at 37° C. in a humid atmosphere enriched with 5% CO2.\nThe peptide solutions (at 0.3 PPM or 3 PPM) were applied topically for 2 hours every day using a filter paper discs presoaked in 30 μl of each solution.\nAt D0, a T0 lot of the explants were removed and cut in half. One half was fixed in buffered formalin and the other half was frozen at −80° C. […]\nThe melanin was visualized by silver impregnation according to the technique of Masson Fontana variant. Labeled melanin has been evaluated by microscopic examination.\nThe expression of melanin in the basal layers, was quantified by image analysis using the software Cell-D.\nThe cell nuclei were colored with a propidium iodide. Labeled Melan-A has been evaluated by microscopic examination and counting of melanocytes Melan-A positive and the results expressed per centimeter of epidermis."}, "[1]": {"tested_on": "reconstructed human epidermis (RHE)", "assay": "Gene expression (RT-qPCR array) in inflammatory reconstructed human epidermis", "format": "cell-based", "details": "with cytokines and peptide 0.3 PPM; versus non stimulated RHE", "experimental": "Transcriptional effects of a peptide (YPLDLF, SEQ ID No 1) on gene expression were researched on a reconstructed human epidermis (RHE) model under inflammatory conditions. The inflammation of the RHE was induced using a mix of cytokines (IL-17+OSM+TNF-α). The effects on gene expression were evaluated using RT-qPCR technology. Extracted mRNA was analyzed on a customized PCR array designed by the study sponsor and containing 64 target genes (including 2 housekeeping genes) selected for their role in keratinocyte differentiation, or their involvement in cell junctions and lipid synthesis, or their relation to opioid receptor delta (DOR).\nReconstructed human epidermis (RHE) of 11 days old was prepared according to a derived method described by Poumay et al. (2004). These RHE were cultivated at 37° C. and 5% of CO2 in a specific maintenance medium.\nThe RHE were cultured in assay medium containing or not (controls) the test compounds or the reference […] inhibitor I at 10 μM) and pre-incubated for 24 hours. Epidermises were then stimulated or not (non-stimulated control) with a cytokine mix (IL-17+OSM+TNF-α) at 3 ng/ml and the epidermises were incubated for 24 hours. All experimental conditions were performed in n=2.\nAt the end of incubation, the supernatants were collected and the RHE were washed in phosphate buffered saline solution (PBS) and immediately dry-frozen at −80° C.\nThe expression of markers was analyzed using RT-qPCR method on mRNA extracted from RHE for each treatment (before RNA extraction the replicates were pooled).\nAnalysis of gene expression was performed in n=2 using a customized PCR array dedicated to research and adapted to ‘screening’ format.\nTotal RNA was extracted from each sample using TriPure Isolation Reagent® according to the supplier's instructions. The amount and quality of RNA were evaluated using a lab-on-a-chip Bioanalyzer (Agilent technologies). The RNA quality controls are presented in appendix. Potential contaminant traces of genomic DNA were removed using the DNAfree system (Ambion). The reverse-transcription of mRNA was conducted in presence of oligo(dT) and Superscript II reverse-transcriptase. Quantification of cDNA was performed using Nanovue (GE Healthcare) and adjustment of cDNA at 10 ng/μl.\nThe PCRs (Polymerase Chain Reactions) were performed using the <<LightCycler®>> system (Roche Molecular System Inc.) according to supplier's instructions. This system allows rapid and powerful PCRs, after determining analysis conditions of the test primers.\nThe reaction mix (10 μl final) was added as follows: • 2.5 μl of cDNA at 10 ng/μl, • primers forward and reverse, • reagent mix containing taq DNA polymerase, SYBR Green I and MgCl2. Data Management of Quantitative PCR\nThe incorporation of fluorescence in amplified DNA was continuously measured during the PCR cycles. […] The value selected for RE calculations is the “output point” (Ct) of the fluorescence curve. For a considered marker, the highest is the cycle number; the lowest is the mRNA quantity. The RE value was expressed in arbitrary units (AU) according to the formula: (½^number of cycles)×10^6."}}, "note": "Ends that are not written are not given here.", "data": [{"substance": "YPLDLF [YPLDLF]", "values": [{"measurement": "production of pigment (melanin) in human skin", "setting": "human skin explants", "value": "activate in a dose dependent manner"}, {"measurement": "Relative expression of ACSS2", "setting": "[1]", "value": "113 % Control (Mean HK)"}, {"measurement": "Relative expression of ADRB2", "setting": "[1]", "value": "259 % Control (Mean HK)"}, {"measurement": "Relative expression of BIRC5", "setting": "[1]", "value": "88 % Control (Mean HK)"}, {"measurement": "Relative expression of CALML5 (Calmodulin-like 5)", "setting": "[1]", "value": "72 % Control (Mean HK)"}, {"measurement": "Relative expression of CASP3", "setting": "[1]", "value": "104 % Control (Mean HK)"}, {"measurement": "Relative expression of CDH1 (E-cadherin)", "setting": "[1]", "value": "126 % Control (Mean HK)"}, {"measurement": "Relative expression of CDSN (Corneodesmosin)", "setting": "[1]", "value": "161 % Control (Mean HK)"}, {"measurement": "Relative expression of CLDN1 (Claudin 1)", "setting": "[1]", "value": "128 % Control (Mean HK)"}, {"measurement": "Relative expression of CLDN2 (Claudin 2)", "setting": "[1]", "value": "121 % Control (Mean HK)"}, {"measurement": "Relative expression of CREB1", "setting": "[1]", "value": "109 % Control (Mean HK)"}, {"measurement": "Relative expression of CRNN (Cornulin)", "setting": "[1]", "value": "71 % Control (Mean HK)"}, {"measurement": "Relative expression of CTNNA1", "setting": "[1]", "value": "117 % Control (Mean HK)"}, {"measurement": "Relative expression of CTNNB1", "setting": "[1]", "value": "134 % Control (Mean HK)"}, {"measurement": "Relative expression of DSG1 (Desmoglein 1)", "setting": "[1]", "value": "98 % Control (Mean HK)"}, {"measurement": "Relative expression of DSP (Desmoplakin)", "setting": "[1]", "value": "107 % Control (Mean HK)"}, {"measurement": "Relative expression of DST (Dystonin)", "setting": "[1]", "value": "93 % Control (Mean HK)"}, {"measurement": "Relative expression of EGFR", "setting": "[1]", "value": "141 % Control (Mean HK)"}, {"measurement": "Relative expression of EPPK1 (Epiplakin 1)", "setting": "[1]", "value": "82 % Control (Mean HK)"}, {"measurement": "Relative expression of EVPL (Envoplakin)", "setting": "[1]", "value": "132 % Control (Mean HK)"}, {"measurement": "Relative expression of F11R", "setting": "[1]", "value": "115 % Control (Mean HK)"}, {"measurement": "Relative expression of FLG (Filaggrin)", "setting": "[1]", "value": "117 % Control (Mean HK)"}, {"measurement": "Relative expression of GAPDH", "setting": "[1]", "value": "116 % Control (Mean HK)"}, {"measurement": "Relative expression of GBA", "setting": "[1]", "value": "110 % Control (Mean HK)"}, {"measurement": "Relative expression of GJA1", "setting": "[1]", "value": "111 % Control (Mean HK)"}, {"measurement": "Relative expression of GJA5", "setting": "[1]", "value": "90 % Control (Mean HK)"}, {"measurement": "Relative expression of GJB2", "setting": "[1]", "value": "131 % Control (Mean HK)"}, {"measurement": "Relative expression of GJB3", "setting": "[1]", "value": "111 % Control (Mean HK)"}, {"measurement": "Relative expression of GJB4", "setting": "[1]", "value": "77 % Control (Mean HK)"}, {"measurement": "Relative expression of GJB5", "setting": "[1]", "value": "122 % Control (Mean HK)"}, {"measurement": "Relative expression of GJB6", "setting": "[1]", "value": "203 % Control (Mean HK)"}, {"measurement": "Relative expression of GJC1", "setting": "[1]", "value": "126 % Control (Mean HK)"}, {"measurement": "Relative expression of GJD3", "setting": "[1]", "value": "487 % Control (Mean HK)"}, {"measurement": "Relative expression of GNAS", "setting": "[1]", "value": "130 % Control (Mean HK)"}, {"measurement": "Relative expression of ITGA2", "setting": "[1]", "value": "108 % Control (Mean HK)"}, {"measurement": "Relative expression of ITGAV", "setting": "[1]", "value": "103 % Control (Mean HK)"}, {"measurement": "Relative expression of IVL (Involucrin)", "setting": "[1]", "value": "119 % Control (Mean HK)"}, {"measurement": "Relative expression of KRT1 (Keratin 1)", "setting": "[1]", "value": "140 % Control (Mean HK)"}, {"measurement": "Relative expression of KRT10 (Keratin 10)", "setting": "[1]", "value": "145 % Control (Mean HK)"}, {"measurement": "Relative expression of KRT19 (Keratin 19)", "setting": "[1]", "value": "134 % Control (Mean HK)"}, {"measurement": "Relative expression of LOR (Loricrin)", "setting": "[1]", "value": "121 % Control (Mean HK)"}, {"measurement": "Relative expression of MAPK1", "setting": "[1]", "value": "108 % Control (Mean HK)"}, {"measurement": "Relative expression of MAPK14", "setting": "[1]", "value": "109 % Control (Mean HK)"}, {"measurement": "Relative expression of OCLN (Occludin)", "setting": "[1]", "value": "131 % Control (Mean HK)"}, {"measurement": "Relative expression of ODC1", "setting": "[1]", "value": "110 % Control (Mean HK)"}, {"measurement": "Relative expression of OPRD1 (Opioid receptor, delta 1)", "setting": "[1]", "value": "101 % Control (Mean HK)"}, {"measurement": "Relative expression of PADI1", "setting": "[1]", "value": "105 % Control (Mean HK)"}, {"measurement": "Relative expression of PANX1 (Pannexin 1)", "setting": "[1]", "value": "133 % Control (Mean HK)"}, {"measurement": "Relative expression of PTGS2", "setting": "[1]", "value": "119 % Control (Mean HK)"}, {"measurement": "Relative expression of PVRL1", "setting": "[1]", "value": "131 % Control (Mean HK)"}, {"measurement": "Relative expression of RPS28 (Ribosomal protein S28)", "setting": "[1]", "value": "91 % Control (Mean HK)"}, {"measurement": "Relative expression of SFN (Stratifin)", "setting": "[1]", "value": "143 % Control (Mean HK)"}, {"measurement": "Relative expression of SLC1A3", "setting": "[1]", "value": "100 % Control (Mean HK)"}, {"measurement": "Relative expression of SMPD1", "setting": "[1]", "value": "87 % Control (Mean HK)"}, {"measurement": "Relative expression of SPRR1A", "setting": "[1]", "value": "142 % Control (Mean HK)"}, {"measurement": "Relative expression of SPRR1B", "setting": "[1]", "value": "127 % Control (Mean HK)"}, {"measurement": "Relative expression of SPRR2A", "setting": "[1]", "value": "111 % Control (Mean HK)"}, {"measurement": "Relative expression of SPTLC1", "setting": "[1]", "value": "120 % Control (Mean HK)"}, {"measurement": "Relative expression of STAT3", "setting": "[1]", "value": "120 % Control (Mean HK)"}, {"measurement": "Relative expression of SULT2B1", "setting": "[1]", "value": "173 % Control (Mean HK)"}, {"measurement": "Relative expression of TGM1 (Transglutaminase 1)", "setting": "[1]", "value": "108 % Control (Mean HK)"}, {"measurement": "Relative expression of TJAP1", "setting": "[1]", "value": "81 % Control (Mean HK)"}, {"measurement": "Relative expression of TJP1", "setting": "[1]", "value": "129 % Control (Mean HK)"}, {"measurement": "Relative expression of UGCG", "setting": "[1]", "value": "117 % Control (Mean HK)"}]}]}
